From patent US9952300B2, “Dynamic contrast enhanced MRI method and agents for the assessment of the macromolecular transport within pathologic tissues” (BRACCO IMAGING S.P.A., priority 2012, dated 2018)
Where “and” joins values, the source holds several entries; their conditions need not be identical. Identical values can stand only once.

Legend:
Human Serum Albumin = Human Serum Albumin (Homo sapiens, UniProt P02768); conditions: literature; cited from earlier work
[1] = tested on: PC-3 human prostate adenocarcinoma tumor; assay: DCE-MRI of contrast agent kinetics in PC-3 tumors of Axitinib- or vehicle-treated mice (Example 3); format: in vivo, NCR athymic nude mice; conditions: contrast agent 100 μmol/kg i.v., one value per animal
Excerpt: The comparative test has been performed using NCR athymic nude mice implanted with PC-3 cells (a human prostate cancer line) and treated with Axitinib®, a VEGFRs inhibitor, (to modulate the tumor vascular permeability) by a protocol which timing is for instance schematized in FIG. 1. Scope of the test was to compare the image-based analysis of the albumin distribution in a human tumor model as extracted from the analysis of a time-serie of MRI images (with spatial resolution of around 110 μm) acquired with the method of the invention after injection of B22956/1 as contrast agent, and the distribution of FITC-BSA (Fluorescent isothiocyanate Bovine Serum Albumin) albumin inside and outside vessels histologically determined from fluorescent microscopy images on a scale of microns.
In particular, the trans-endothelial permeability (K^Trans) and the fractional plasma volume (fPV) were calculated from dynamic MR data by application of a bi-compartmental pharmacokinetic model, while the Initial Area Under the Curve (IAUCT) was calculated in several time windows, typically comprised between the contrast agent administration and the end of the MRI acquisition. The macromolecular penetration in tumors was, then, probed by fluorescently labelled Bovine Serum Albumin administered via tail vein after the last MRI session. Microscopic images were used to quantify the percentage of area stained by fluorescent albumin in the tumor, as a measure of the blood vessel density, using an automatic thresholding method. The albumin extravasation in the tumor extravascular space was assessed based on the fluorescence found out of the blood vessels from histological samples taken from both of tumor rim and core, for instance as schematized in FIG. 2. In particular, the albumin florescence was averaged over all pixels at a given distance from the nearest vessel and stored as a function of distance from the vessels walls, by use of an optimized procedure, for instance schematized in FIG. 3, providing both a quantification of the availability of the albumin in the extravascular space of the concerned tumor, namely the amount of the extravasated FITC-Albumin, and the decay of its concentration over the distance x from a nearest vessel, or, in other words, its actual distribution and dilution within the extracellular spaces (for instance as schematized in FIG. 4).
Human prostate adenocarcinoma cells (PC-3) were supplied by ATCC (American Type Culture Collection) and grown in Hams F-12 medium supplemented with 10% foetal bovine serum, 2 mM glutamine, 100 IU/mL penicillin and 100 μg/mL streptomycin (all from Lonza, Verviers, Belgium). […] Tumour development was followed by palpation and measured by calliper every 2-3 days until the end of the experiment. […]

tumor tissues = conditions: literature (Maeda et al.); cited from earlier work

Human Serum Albumin, sequence (P02768 25-609): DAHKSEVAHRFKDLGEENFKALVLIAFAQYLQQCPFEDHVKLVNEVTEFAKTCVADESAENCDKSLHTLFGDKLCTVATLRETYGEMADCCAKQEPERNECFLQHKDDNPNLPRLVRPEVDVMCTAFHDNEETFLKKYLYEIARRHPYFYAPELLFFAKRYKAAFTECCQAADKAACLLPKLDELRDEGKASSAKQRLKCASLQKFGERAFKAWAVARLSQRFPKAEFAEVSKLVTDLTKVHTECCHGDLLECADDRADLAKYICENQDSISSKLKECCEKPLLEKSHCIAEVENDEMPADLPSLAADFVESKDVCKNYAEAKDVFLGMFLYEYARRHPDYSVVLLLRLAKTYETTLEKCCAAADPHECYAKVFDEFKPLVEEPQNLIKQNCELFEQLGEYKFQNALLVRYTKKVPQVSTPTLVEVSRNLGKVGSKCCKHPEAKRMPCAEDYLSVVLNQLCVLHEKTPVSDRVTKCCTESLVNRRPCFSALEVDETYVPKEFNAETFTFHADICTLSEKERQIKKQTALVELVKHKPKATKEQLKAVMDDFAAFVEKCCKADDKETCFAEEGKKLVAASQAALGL

Molecule: O=C([O-])CN(CCN(CC(=O)[O-])C[C@H](COP(=O)([O-])OC1CCC(c2ccccc2)(c2ccccc2)CC1)N(CC(=O)[O-])CC(=O)[O-])CC(=O)[O-].[Gd+3].[H+].[H+].[H+] [Gadofosveset, reference compound]
- non-covalent binding with Human Serum Albumin (Human Serum Albumin): about 90%

Molecule: CNC[C@H](O)[C@@H](O)[C@H](O)[C@H](O)CO.CNC[C@H](O)[C@@H](O)[C@H](O)[C@H](O)CO.O=C([O-])CN(CCN(CC(=O)[O-])CC(=O)O)CCN(CC(=O)O)C(COCc1ccccc1)C(=O)[O-].[Gd+3] (stereo not shown) [MultiHance, reference compound]
- kTrans (Transfer Constant) ([1]; tumor core): 3.63 mL\(min × g) × 100 and 1.02 mL\(min × g) × 100 and 2.86 mL\(min × g) × 100 and 3.57 mL\(min × g) × 100 and 2.54 mL\(min × g) × 100 and 1.53 mL\(min × g) × 100 and 0.82 mL\(min × g) × 100 and 3.15 mL\(min × g) × 100 and 4.46 mL\(min × g) × 100 and 1.08 mL\(min × g) × 100 and 1.63 mL\(min × g) × 100 and 3.19 mL\(min × g) × 100 and 2.6 mL\(min × g) × 100 and 4.07 mL\(min × g) × 100 and 1.06 mL\(min × g) × 100
- kTrans (Transfer Constant) ([1]; tumor rim): 8.14 mL\(min × g) × 100 and 3.59 mL\(min × g) × 100 and 3.81 mL\(min × g) × 100 and 4.51 mL\(min × g) × 100 and 4.22 mL\(min × g) × 100 and 4.44 mL\(min × g) × 100 and 3.23 mL\(min × g) × 100 and 4.78 mL\(min × g) × 100 and 6.14 mL\(min × g) × 100 and 1.74 mL\(min × g) × 100 and 5.23 mL\(min × g) × 100 (2×) and 5.82 mL\(min × g) × 100 and 3.76 mL\(min × g) × 100 and 2.88 mL\(min × g) × 100

B1: SMANCS (conjugate, UniProt P0A3R9 35-147, looked up)
Neocarzinostatin: AAPTATVTPSSGLSDGTVVKVAGAGLQAGTAYDVGQCAWVDTGVLACNPADFSSVTADANGSASTSLTVRRSFEGFLFDGTRWGTVDCTTAACQVGLSDAAGNGPEGVAISFN
modifications: styrene-maleic acid copolymer conjugate
- spontaneous accumulation within tumor tissues versus normal tissues and organs (tumor tissues): up to 200 times
